Measurements reported in patent publication US20060004088A1, “Furan derivatives for preventing and curing osteoporosis and pharmaceutical compositions containing the same” (OCT INC., priority 2002, published 2006).

System: osteoclast pregenitor cells
Test: Inhibition rates of furan derivatives versus osteoclast formation (TRAP staining)
Format: cell-based, mice
Settings: TRAP-positive multinucleated cells, untreated control set as 100%
Procedure, shortened: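 Non-adherent mouse bone-marrow osteoclast precursors cultured 8 days with 20 ng/ml M-CSF and 30 ng/ml RANKL in presence of compound. TRAP-positive cells with ≥3 nuclei counted; inhibition expressed relative to untreated control set at 100%.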

Row | SMILES | Inhibition rate against osteoclast formation, % (0.1 μM) | Inhibition rate against osteoclast formation, % (1 μM) | Inhibition rate against osteoclast formation, % (10 μM)
1 | COc1ccccc1NC(=O)c1ccc(COc2ccccc2OC)o1 [Compound 166] | 0% | 0% | 1.08%
2 | COC(=O)c1ccccc1NC(=O)c1ccc(COc2ccc(Cl)cc2Cl)o1 [Compound 167] | 0% | 22.42% | 96.47%
3 | CCc1ccc(OCc2ccc(C(=O)Nc3cc(C)cc(C)c3)o2)cc1 [Compound 169] | 0% | 0% | 21.04%
4 | CCCc1ccc(OCc2ccc(C(=O)Nc3cc(Cl)ccc3Cl)o2)cc1 [Compound 170] | 0% | 0% | 16.31%
5 | COc1ccc(C)cc1NC(=O)c1ccc(COc2cccc(Cl)c2)o1 [Compound 171] | 0% | 0% | 0.42%
6 | Cc1cc(OCc2ccc(C(=O)Nc3cccc(C)c3C)o2)ccc1Cl [Compound 172] | 0% | 0% | 11.08%
7 | Cc1cc(OCc2ccc(C(=O)Nc3ccc(Cl)cc3)o2)ccc1Cl [Compound 173] | 0% | 0% | 8.03%
8 | COc1ccccc1OCc1ccc(C(=O)Nc2ccccc2Cl)o1 [Compound 174] | 0% | 0% | 14.11%
9 | COc1ccccc1OCc1ccc(C(=O)Nc2ccc(C)c(C)c2)o1 [Compound 175] | 0% | 0% | 33.33%
10 | CCCc1ccc(OCc2ccc(C(=O)Nc3ccc(F)cc3F)o2)c(OC)c1 [Compound 176] | 0% | 0% | 15.56%
11 | Cc1cc(C)cc(OCc2ccc(C(=O)Nc3ccccc3F)o2)c1 [Compound 177] | 0% | 0% | 11.03%
12 | O=C(Nc1ccccc1F)c1ccc(COc2ccc(Cl)cc2)o1 [Compound 178] | 0% | 0% | 14.09%
13 | Cc1cccc(C)c1NC(=O)c1ccc(COc2ccc(Cl)cc2)o1 [Compound 179] | 0% | 0% | 34.81%
14 | COC(=O)c1ccccc1NC(=O)c1ccc(COc2ccc(C)c(C)c2)o1 [Compound 180] | 0% | 0% | 8.15%
15 | O=C(Nc1cc(C(F)(F)F)ccc1Cl)c1ccc(COc2ccc(Cl)cc2)o1 [Compound 181] | 0% | 0% | 56.96%
16 | COc1cc([N+](=O)[O-])ccc1NC(=O)c1ccc(COc2ccc(Cl)cc2)o1 [Compound 182] | 0% | 0% | 4.34%
17 | O=C(Nc1ccccc1[N+](=O)[O-])c1ccc(COc2ccccc2Cl)o1 [Compound 183] | 0% | 0% | 57.39%
18 | O=C(Nc1ccc(F)cc1F)c1ccc(COc2c(F)c(F)cc(F)c2F)o1 [Compound 185] | 0% | 0% | 13.64%
19 | Cc1ccc(OCc2ccc(C(=O)Nc3ccc(F)c(F)c3)o2)cc1C [Compound 186] | 0% | 0% | 21.09%
20 | CC(=O)Nc1cccc(NC(=O)c2ccc(COc3c(F)c(F)c(F)c(F)c3F)o2)c1 [Compound 187] | – | 37.05% | 36.74%
21 | COc1ccc(NC(=O)c2ccc(COc3ccccc3Br)o2)c(OC)c1 [Compound 188] | 0% | 0% | 7.6%
22 | COc1ccccc1NC(=O)c1ccc(COc2ccc(C(C)(C)C)cc2)o1 [Compound 189] | 0% | 0% | 48.99%
23 | O=C(Nc1ccc(I)cc1)c1ccc(COc2ccccc2Br)o1 [Compound 190] | 0% | 0% | 5.12%
24 | O=C(Nc1cccc([N+](=O)[O-])c1)c1ccc(COc2ccc(I)cc2)o1 [Compound 191] | 0% | 0% | 8.06%
